Results as given in patent publication US8519124B2, “Chemokine receptor antagonists and use thereof” (Ono Pharmaceutical Co., Ltd., priority 2005, dated 2013).

Key:
[1] = Measurement of maximum plasma level (Cmax) and bioavailability (BA); format: in vivo; settings: male, Crl:CD(SD), po; rat plasma; orally administered solution 10 mg/kg, fasting
Description: Measurement of Maximum Plasma Level (CMax) and Bioavailability (BA)
A test compound is weighed, dissolved in Solutol (trade name; manufactured by BASF-TAKEDA Vitamins Ltd.)/propylene glycol=7/3 which is heated to 60° C. and adjusted to 20 mg/mL; thereafter, the test compound is diluted by 10 times with distilled water for injection, and further diluted by 2 times with saline solution, by which intravenously administered solution is eventually made. The test compound is weighed, dissolved in Solutol (trade name; manufactured by BASF-TAKEDA Vitamins Ltd.)/propylene glycol=7/3 which is heated to 60° C., and adjusted to 20 mg/mL; thereafter, the test compound is diluted by 10 times with distilled water for injection, by which orally administered solution is eventually made. Intravenous administration is performed by rapid single administration (n=3) of intravenously administered solution (1 mg/kg) from the tail vein of Crl:CD(SD) Rat (male, manufactured by CHARLES RIVER LABORATORIES JAPAN, INC). Oral administration is performed by forced administration (n=3) of orally administered solution (10 mg/kg) into the stomach of Crl:CD(SD) Rat (male, manufactured by CHARLES RIVER LABORATORIES JAPAN, INC.) using a sonde. The administration is conducted under fasting conditions; water is freely ingested. A 0.35 mL blood sample is taken from cervical vein by using Heparinized Syringe at 15 minutes, 30 minutes, 1 hour, 2 hours, 4 hours, 6 hours, 8 hours, and 24 hours after administration. The obtained blood is stored in ice, and after centrifugation at 12,000 rpm for 5 minutes, blood plasma is fractionated. The blood plasma is preserved at a temperature of −80° C. The sample of blood plasma preserved at a temperature of −80° C. is dissolved; inner standard solution (100 μL) and acetonitrile (2 mL) are added to the blood plasma sample 100 μL and stirred; and the sample is centrifuged at 2,500 rpm for 10 minutes. After the supernatant is evaporated to dryness by means of a centrifugal concentrator, 67% dimethyl sulfoxide solution (150 μL) is added to the residue and dissolves them again; and 20 μL of the solution is analyzed by means of LC/MS/MS.
The analysis by means of LC/MS/MS should be performed, for example, under the following conditions:
Measurement device: Waters 2795 (manufactured by Waters Corporation)
Analytical column: Unison UK-C18, 3.0 μm particle size, 2.0 mm×30 mm (manufactured by Imtakt Corporation)
Analytical column temperature: Room temperature
Moving bed: 5 mM IPC-PFAA-7 solution/acetonitrile (9/1→1/9)
Measurement device: Quatro micro API (manufactured by Micromass Communications Inc.)
Method for ionization: ES+
Capillary electric potential: 3.30 kV
Source temperature: 120° C.
Desolvation temperature: 350° C.
The monitor ion which was suitable for each sample was selected.
The concentration transition in the rat blood plasma of the test compound is analyzed by means of non-compartment analysis method by using WinNonlin 4.0.1 (manufactured by Pharsight Corporation) to calculate the maximum blood concentration Cmax and the area under the blood concentration curve AUC.
BA is calculated by means of the following formula: BA(%)={(AUCp.o./Dosep.o.)/(AUCi.v./Dosei.v.)}×100
AUCp.o.: AUC in oral administration
Dosep.o.: Amount of the drug orally administered
AUCi.v.: AUC in intravenous administration
Dosei.v.: Amount of the drug intravenously administered

[2] = system: DOPA liposome (artificial lipid membrane); test: Artificial lipid membrane binding by using Biacore S51 system; settings: 50 μM compound; for Judgement (phospholipidosis inductive effect): DOPA liposome; for Corrected value of binding response (RU): DOPA liposome on Sensor Chip L1, 37° C., PBS/5% DMSO (pH 7.4 or PH 6.0)
Description: Artificial Lipid Membrane Binding Account by Using Biacore (Registered Trademark) S51 System
10 mM of 1,2-Dioleoyl-sn-Glycero-3-Phosphate, Monosodium Salt (hereinafter abbreviated as DOPA) chloroform solution was evaporated to dryness by means of an aspirator, and 0.6 mL of PBS/5% dimethyl sulfoxide (hereinafter abbreviated as DMSO) was added. The chloroform solution was fully suspended by means of a vortex mixer, and the freezing and thawing were repeated for 5 times. Liposome was created by means of a liposome adjustment instrument (manufactured by Avestin Inc.) and 2 syringes, and was diluted to 0.5 mM with PBS/5% DMSO just prior to immobilization.
(ii) Measurement Compound Adjustment
The 38 μL of 1×PBS is added to 2 μL DMSO solution (10 mM), and further the 360 μL 1×PBS/5% DMSO was added; the 50 μM of final concentration in the 1×PBS/5% DMSO was adjusted and measured.
All of the following analysis used Biacore® S51 system; the measurement conditions were set by Biacore S51 Control Soft.
The measurement temperature was set to be 37° C., and the 1×PBS/5% DMSO (pH 7.4 or PH 6.0) was used as a buffer. Series S Sensor Chip L1 was used for a sensor chip. The DOPA was immobilized in one of the measuring spots on the sensor surface, and the central spot was used as a reference.
Immobilization of liposome was conducted at a flow rate of 10 μL/min for about 3 minutes; then the compound was added at a flow rate of 30 μL/min and the interaction was measured. The measurement conditions are as follows:
Assay buffer: PBS/5% DMSO (pH 7.4 or PH 6.0)
Measurement temperature: 37° C.
Sensor chip: Series S Sensor Chip L1
Flow rate: 10 μL/min at the time of the liposome immobilization; 30 μL/min at the time of the measurement of interaction with the compound
Regeneration: 20 mM CHAPS (3-[(3-Cholamidopropyl)dimethylammonio]-1-propanesulfonate), Isopropanol/50 mM sodium hydroxide solution=40/60 (volume ratio) mixture (60 seconds)
The data processing was conducted by means of method of Abdiche et al. (Analytical biochemistry, 328, 233-243 (2004)) by using Biacore S51 Evaluation Soft.
Regarding the value of binding response (RU) in which the value of reference was subtracted, it was divided by a sample molecular weight after minute error of the DMSO concentration included in the sample solution was corrected. In addition, the value obtained here was divided by an amount of capture at the time of the cycle because the value obtained here was proportional to the amount of capture of the liposome; further, the value was multiplied by a million to be considered as a corrected value (Corrected value=1000000)×RU (test compound)/molecular quantity (test compound) RU (liposome)).
Propranolol, Amiodarone, Desipramine, Imipramine and Procaine were added as the controls, and it was recognized that the variation of the binding response was within ca. 10 to 15%.
The compound, in which a value of the binding response after the correction was equal to or more than 150, was determined as positive.

Cmax [1] | Corrected value of binding response (RU) [2] | SMILES | Judgement (phospholipidosis inductive effect) [2]
157 ng/mL | 72.0 RU | CCC(CC)N1CCC2(CCN(C(=O)c3ccc(CN(Cc4ncc[nH]4)Cc4nccn4C)cc3)C2)CC1 [Example 40 (72), 1-(4-{[8-(1-ethylpropyl)-2,8-diazaspiro[4.5]dec-2-yl]carbonyl}phenyl)-N-(1H-imidazol-2-ylmethyl)-N-[(1-methyl-1H-imidazol-2-yl)methyl]methanamine] | negative
80 ng/mL | 66.6 RU | CC(C)CN1CCC2(CCN(Cc3ccc(C(=O)N(Cc4ncc[nH]4)Cc4ncc[nH]4)cc3)CC2)C1 [Example 8 (113), N,N-bis(1H-imidazol-2-ylmethyl)-4-[(2-isobutyl-2,8-diazaspiro[4.5]dec-8-yl)methyl]benzamide] | negative
175 ng/mL | 77.6 RU | CC(C)(C)CN1CCC2(CC1)CCN(C(=O)Cc1ccc(CN(Cc3ncc[nH]3)Cc3ncc[nH]3)cc1)C2 [Example 40 (68), 1-(4-{2-[8-(2,2-dimethylpropyl)-2,8-diazaspiro[4.5]dec-2-yl]-2-oxoethyl}phenyl)-N,N-bis(1H-imidazol-2-ylmethyl)methanamine] | negative
420 ng/mL | 36.0 RU | O=C(CC(=O)N1CCC2(CCN(C3CCCCC3)CC2)C1)N1CCC(N(Cc2ncc[nH]2)Cc2ncc[nH]2)CC1 [Example 65 (4), 1-[3-(8-cyclohexyl-2,8-diazaspiro[4.5]dec-2-yl)-3-oxopropanoyl]-N,N-bis(1H-imidazol-2-ylmethyl)-4-piperidinamine] | negative
